The source of these data is patent publication US10800789B2, “Antiviral compounds” (Gilead Pharmasset LLC, priority 2012, dated 2020).

Like-named read-outs stand apart in the source and are kept apart here.

In test [1] the test system is NS5A chimeric genotype 1b Con1 replicon with genotype 4a ED43 strain NS5A gene. Description: Replicon assay, genotype 4a NS5A chimera. Particulars: Hepatitis C virus. It is filed as cell-based, HCV.
In test [2] the test system is stable HCV 1a RLuc replicon cells (dicistronic genotype 1a H77 replicon). Put plainly: Renilla luciferase HCV replicon reporter assay, genotype 1a. Particulars: Hepatitis C virus, 72 h, stable 1a H77 RLuc replicon cells. The format is cell-based. The method in brief: (§1)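 Cells carrying the stable or transiently transfected (Huh-Lunet) dicistronic RLuc replicons received 3-fold serial compound dilutions from 10 mM DMSO stocks. After 72 h, cells were lysed and Renilla luciferase read. DMSO served as the no-inhibition control and ITMN-191 above 100×EC50 as the positive control; EC50 by non-linear regression.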
In general terms: Replicon systems follow genome replication, usually without infectious particles.

Test [3] deals with stable HCV 2a JFH-1 Rluc replicon cells (L31 present in NS5A). Description: Renilla luciferase HCV replicon reporter assay, genotype 2a JFH-1. Particulars: Hepatitis C virus. It is filed as cell-based. The method in brief: as §1
The subject of test [4] is NS5A chimeric genotype 1b Con1 replicon with genotype 3a S52 strain NS5A gene. Put plainly: Replicon assay, genotype 3a NS5A chimera. It is filed as cell-based, HCV. Particulars: Hepatitis C virus.
Test [5] relates to NS5A chimeric genotype 2a JFH-1 replicon with genotype 2b MD2b-1 strain NS5A gene (M31 present). Description: Replicon assay, genotype 2b NS5A chimera. It is filed as cell-based, HCV. As to conditions: Hepatitis C virus. The essentials:
as §1

The test system of test [6] is NS5A chimeric genotype 2a JFH-1 replicon with genotype 2a J6 strain NS5A gene (M31 present). Description: Replicon assay, genotype 2a J6 NS5A chimera. Particulars: Hepatitis C virus. The format is cell-based, HCV. The method in brief:
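72 h compound exposure (3-fold dilutions from 10 mM DMSO stocks) of replicon cells: stable dicistronic RLuc 1a H77, 1b Con1, 2a JFH-1 (NS5A L31); J6-NS5A chimera in JFH-1 (M31), transient in Huh-Lunet or stable. Renilla luciferase read-out, non-linear regression → EC50. DMSO negative control.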

Test [7] concerns stable HCV 1b RLuc replicon cells (dicistronic genotype 1b Con1 replicon). Description: Renilla luciferase HCV replicon reporter assay, genotype 1b. It is filed as cell-based. As to conditions: Hepatitis C virus, 72 h, stable 1b Con1 RLuc replicon cells, 72 hours; read-out: 1b. The essentials:
as §1

[8] abbreviates: read-out: 4a (s) (nM), genotype 4a NS5A chimeric replicon, stable replicon cells (s).
[9] abbreviates: read-out: 4a (s), (s), activity range.
[10] abbreviates: read-out: 2a JFH (nM), genotype 2a JFH-1 replicon (L31 in NS5A), stable cells.
The mark [11] stands for this setting: read-out: 2a JFH, stable 2a JFH-1 Rluc replicon cells, L31 in NS5A, activity range.
The mark [12] stands for this setting: read-out: 3a (s) (nM), genotype 3a NS5A chimeric replicon, stable replicon cells (s).
The mark [13] stands for this setting: read-out: 3a (s), (s), activity range.
Setting [14] is: 2BS, read-out: 2b (s), stably replicating replicon cells (s), activity range.
The mark [15] stands for this setting: read-out: 2b (s) (nM), genotype 2b MD2b-1 NS5A chimeric replicon (M31), stably replicating replicon cells (s).
Where [16] appears, read: read-out: 2a J6 (t) (nM), genotype 2a J6 NS5A chimeric replicon (M31), transiently transfected (t) into Huh-Lunet cells.
Setting [17] is: read-out: 2a J6 (t), transiently transfected (t) into Huh-Lunet cells, activity range.

Turning to `COC(=O)N[C@@H](C)C(=O)N1[C@@H](C)CC[C@H]1c1ncc(-c2ccc3c(c2)COc2cc4c(ccc5nc([C@@H]6CC[C@H](C)N6C(=O)[C@H](C)NC(=O)OC)[nH]c54)cc2-3)[nH]1` [HF], the EC50 in test [1] (setting [8]) was 0.111 nM; in test [1] (setting [9]) it was 0.1 to 0.999 nM; in test [2], 0.043 nM; in test [2] (activity range), under 0.1 nM; in test [3] (setting [10]), 0.06 nM; in test [3] (setting [11]), under 0.1 nM. Further, the EC50 is 0.556 nM in test [4] (setting [12]); 0.1 to 0.999 nM in test [4] (setting [13]); 1 to 44 nM in test [5] (setting [14]); 16.3 nM in test [5] (setting [15]); 19.5 nM in test [6] (setting [16]); 1 to 44 nM in test [6] (setting [17]). For the same compound, the EC50 in test [7] is 0.066 nM.
For `COC(=O)N[C@H](C(=O)N1CCC[C@H]1c1ncc(-c2ccc3c(c2)COc2cc4c(ccc5nc([C@@H]6CCCN6C(=O)[C@@H](NC(=O)OC)[C@@H](C)OC)[nH]c54)cc2-3)[nH]1)[C@@H](C)OC` [HG], the EC50 was 0.033 nM in test [1] (setting [8]); under 0.1 nM in test [1] (setting [9]); 0.06 nM in test [2]; under 0.1 nM in test [2] (activity range); 0.021 nM in test [3] (setting [10]); under 0.1 nM in test [3] (setting [11]). Moreover, the EC50 in test [4] (setting [12]) was 0.129 nM; in test [4] (setting [13]), 0.1 to 0.999 nM; in test [5] (setting [14]), 0.1 to 0.999 nM; in test [5] (setting [15]), 0.733 nM; in test [6] (setting [16]) it was 0.185 nM; in test [6] (setting [17]) it was 0.1 to 0.999 nM. Further, in test [7], the EC50 turned out to be 0.109 nM.
As for `COC(=O)N[C@H](C(=O)N1CCC[C@H]1c1ncc(-c2ccc3c(c2)COc2cc4c(ccc5nc([C@@H]6CCCN6C(=O)[C@@H](NC(=O)OC)C6CCOCC6)[nH]c54)cc2-3)[nH]1)C1CCOCC1` [HI], the EC50 in test [1] (setting [8]) was 0.111 nM; in test [1] (setting [9]) it was 0.1 to 0.999 nM; in test [2], 0.203 nM; in test [2] (activity range), 0.1 to 0.999 nM; in test [3] (setting [10]) it was 0.041 nM; in test [3] (setting [11]), under 0.1 nM. Besides, the EC50 in test [4] (setting [12]) was 0.447 nM; in test [4] (setting [13]) it was 0.1 to 0.999 nM; in test [5] (setting [14]) it was 0.1 to 0.999 nM; in test [5] (setting [15]) it was 0.203 nM; in test [6] (setting [16]), 0.2 nM; in test [6] (setting [17]), 0.1 to 0.999 nM. In test [7], the EC50 was determined as 0.416 nM.
On to `CC[C@H]1C[C@@H](c2nc3ccc4cc5c(cc4c3[nH]2)OCc2cc(-c3cnc([C@@H]4CC[C@H](C)N4C(=O)[C@@H](NC(=O)OC)C(C)C)[nH]3)ccc2-5)N(C(=O)[C@H](C)NC(=O)OC)C1` [HK], for which the EC50 in test [1] (setting [8]) is 0.02 nM; in test [1] (setting [9]) it was under 0.1 nM; in test [2], 0.017 nM; in test [2] (activity range) it was under 0.1 nM; in test [3] (setting [10]) it was 0.034 nM; in test [3] (setting [11]), under 0.1 nM. In addition, the EC50 was 0.705 nM in test [4] (setting [12]); 0.1 to 0.999 nM in test [4] (setting [13]); 1 to 44 nM in test [5] (setting [14]); 11.5 nM in test [5] (setting [15]); 0.878 nM in test [6] (setting [16]); 0.1 to 0.999 nM in test [6] (setting [17]). The EC50 in test [7] was 0.026 nM.
For `COC(=O)N[C@@H](C)C(=O)N1[C@@H](C)CC[C@H]1c1ncc(-c2ccc3c(c2)COc2cc4c(ccc5nc([C@@H]6CC[C@H](C)N6C(=O)[C@@H](NC(=O)OC)C(C)C)[nH]c54)cc2-3)[nH]1` [HL], the EC50 in test [1] (setting [8]) was 0.02 nM; in test [1] (setting [9]) it was under 0.1 nM; in test [2], 0.017 nM; in test [2] (activity range) it was under 0.1 nM; in test [3] (setting [10]), 0.019 nM; in test [3] (setting [11]), under 0.1 nM. The EC50 in test [4] (setting [12]) is 0.127 nM; in test [4] (setting [13]), 0.1 to 0.999 nM; in test [5] (setting [14]), 1 to 44 nM; in test [5] (setting [15]), 3.72 nM; in test [6] (setting [16]) it was 1.43 nM; in test [6] (setting [17]), 1 to 44 nM. The EC50 in test [7] was found to be 0.021 nM.
Regarding `COC(=O)N[C@H](C(=O)N1C(c2ncc(-c3ccc4c(c3)COc3cc5c(ccc6nc(C7C[C@H](C)CN7C(=O)[C@@H](NC(=O)OC)C(C)(C)C)[nH]c65)cc3-4)[nH]2)CC[C@@H]1C)C(C)C` (stereo partly shown) [HN], the EC50 in test [1] (setting [8]) is 0.018 nM; in test [1] (setting [9]) it was under 0.1 nM; in test [2], 0.01 nM; in test [2] (activity range), under 0.1 nM; in test [3] (setting [10]), 0.018 nM; in test [3] (setting [11]) it was under 0.1 nM. In addition, the EC50 in test [4] (setting [12]) is 0.282 nM; in test [4] (setting [13]), 0.1 to 0.999 nM; in test [5] (setting [14]), 1 to 44 nM; in test [5] (setting [15]), 2.86 nM; in test [6] (setting [16]), 1.1 nM; in test [6] (setting [17]) it was 1 to 44 nM. Besides, in test [7], the EC50 was 0.012 nM.
Turning to `COC(=O)N[C@H](C(=O)N1[C@@H](C)CC[C@H]1c1nc2ccc3cc4c(cc3c2[nH]1)OCc1cc(-c2cnc([C@@H]3[C@@H]5C[C@@H]5CN3C(=O)[C@@H](NC(=O)OC)C3CCOCC3)[nH]2)ccc1-4)C(C)C` [HO], the EC50 was 0.04 nM in test [1] (setting [8]); under 0.1 nM in test [1] (setting [9]); 0.059 nM in test [2]; under 0.1 nM in test [2] (activity range); 0.022 nM in test [3] (setting [10]); under 0.1 nM in test [3] (setting [11]). For the same compound, the EC50 in test [4] (setting [12]) is 0.136 nM; in test [4] (setting [13]) it was 0.1 to 0.999 nM; in test [5] (setting [14]) it was 0.1 to 0.999 nM; in test [5] (setting [15]), 0.639 nM; in test [6] (setting [16]), 0.207 nM; in test [6] (setting [17]) it was 0.1 to 0.999 nM. For the same compound, the EC50 in test [7] turned out to be 0.074 nM.
With `COC(=O)N[C@H](C(=O)N1[C@@H](C)CC[C@H]1c1nc2ccc3cc4c(cc3c2[nH]1)OCc1cc(-c2cnc([C@@H]3[C@@H]5C[C@@H]5CN3C(=O)[C@@H](NC(=O)OC)[C@@H](C)OC)[nH]2)ccc1-4)C(C)C` [HP], the EC50 in test [1] (setting [8]) was 0.023 nM; in test [1] (setting [9]), under 0.1 nM; in test [2], 0.019 nM; in test [2] (activity range), under 0.1 nM; in test [3] (setting [10]), 0.014 nM; in test [3] (setting [11]), under 0.1 nM. The EC50 is 0.079 nM in test [4] (setting [12]); under 0.1 nM in test [4] (setting [13]); 1 to 44 nM in test [5] (setting [14]); 1.02 nM in test [5] (setting [15]); 0.22 nM in test [6] (setting [16]); 0.1 to 0.999 nM in test [6] (setting [17]). The EC50 in test [7] was 0.026 nM.
For the compound `COC(=O)N[C@H](C(=O)N1C[C@H]2C[C@H]2[C@H]1c1ncc(-c2ccc3c(c2)COc2cc4c(ccc5nc([C@@H]6CC[C@H](C)N6C(=O)[C@@H](NC(=O)OC)C(C)C)[nH]c54)cc2-3)[nH]1)C(C)C` [HR], the EC50 is 0.015 nM in test [1] (setting [8]); under 0.1 nM in test [1] (setting [9]); 0.015 nM in test [2]; under 0.1 nM in test [2] (activity range); 0.022 nM in test [3] (setting [10]); under 0.1 nM in test [3] (setting [11]). Moreover, the EC50 in test [4] (setting [12]) was 0.047 nM; in test [4] (setting [13]), under 0.1 nM; in test [5] (setting [14]), 1 to 44 nM; in test [5] (setting [15]), 2.18 nM; in test [6] (setting [16]), 1.12 nM; in test [6] (setting [17]), 1 to 44 nM. Also, in test [7], the EC50 amounted to 0.024 nM.
Turning to `COC(=O)N[C@H](C(=O)N1C[C@@H](F)C[C@H]1c1ncc(-c2ccc3c(c2)COc2cc4c(ccc5nc([C@@H]6CC[C@H](C)N6C(=O)[C@@H](NC(=O)OC)C(C)C)[nH]c54)cc2-3)[nH]1)C(C)C` [HS], the EC50 in test [1] (setting [8]) was 0.008 nM; in test [1] (setting [9]), under 0.1 nM; in test [2], 0.011 nM; in test [2] (activity range), under 0.1 nM; in test [3] (setting [10]), 0.022 nM; in test [3] (setting [11]), under 0.1 nM. Besides, the EC50 in test [4] (setting [12]) was 0.082 nM; in test [4] (setting [13]) it was under 0.1 nM; in test [5] (setting [14]) it was 1 to 44 nM; in test [5] (setting [15]) it was 3.37 nM; in test [6] (setting [16]), 4.14 nM; in test [6] (setting [17]) it was 1 to 44 nM. In test [7], the EC50 stood at 0.023 nM.
